Assay results from US20250341026A1, “METHODS AND MEANS FOR PREPARING A LIBRARY FOR SEQUENCING” (Illumina, Inc., priority 2018, published 2025).

Legend:
mtDNA [1] = assay: ATAC-seq reads mapped to mtDNA after contacting the sample with dye; format: biochemical; settings: for Effect on mitochondrial DNA reads: ATAC-seq, increasing dye concentrations (FIGS. 2A-2C); for % Mapped to mtDNA: transposition and ATAC-seq
Experimental: (§1) A sample was obtained having both nuclear DNA and mtDNA. The sample was separated into various aliquots, and each aliquot was contacted with Hoechst 33258 dye in various concentrations, including 8 μM, 80 μM, and 800 μM. Each aliquot was then subjected to transposition and ATAC-seq, and the DNA reads were analyzed.
(§2) As shown in FIGS. 2A-2C, Hoechst dye selectively stained mtDNA, preventing transposition into mtDNA, but allowing transposition of nuclear DNA. […] The methods and compositions may be used for bulk ATAC-seq or single cell ATAC-seq to inhibit, reduce, or eliminate undesired mtDNA sequencing reads.

gDNA (nuclear) = assay: ATAC-seq reads mapped to nuclear gDNA after contacting the sample with dye; format: biochemical; settings: transposition and ATAC-seq
Experimental: as §1, §2

nucleosome positioning = assay: ATAC-seq profiles (nucleosome positioning) with dyes compared to no dye control; format: biochemical; settings: FIG. 4; compared to the no dye control
Experimental: A sample was obtained having both nuclear DNA and mtDNA. The sample was separated into various aliquots, and each aliquot was contacted with a different dye in various concentrations. Five different dyes were used, including Hoechst (at concentrations of 50 μM, 25 μM, 12 μM, 6 μM, 3 μM, and 0.6 μM), SYBR Gold (at concentrations of 500 μM, 50 μM, 5 μM, 0.5 μM, and 0.1 μM), Sytox Orange (at concentrations of 500 μM, 50 μM, 5 μM, 0.5 μM, and 0.1 μM), PicoGreen (at concentrations of 100 μM, 10 μM, 1 μM, 0.1 μM, and 0.02 μM), and Qubit (at concentrations of 100 μM, 10 μM, 1 μM, 0.1 μM, and 0.02 μM), as shown in FIGS. 3A-3C. Another aliquot was prepared that was not exposed to any dye. Each aliquot was then subjected Nextera transposition and products were visualized on a gel. FIG. 3A depicts the gel for Hoechst and SYBR Gold. FIG. 3B depicts the gel for Sytox Orange and PicoGreen, and FIG. 3C depicts the gel for Qubit and no dye. High molecular weight DNA products are indicative of inefficient transposition.
Hoechst allows relatively unbiased ATAC-seq profiling while not changing nucleosome positioning.

mtDNA [2] = assay: DAPI staining of samples; format: binding
From the text: In addition to performing transposition and ATAC-seq, the samples were also stained. […] DAPI stained DNA, but not at certain locations.

[3] = Concentration of Hoechst 800 μM

SMILES	Effect on mitochondrial DNA reads (mtDNA [1])	Effect on mitochondrial DNA reads (mtDNA [1]; listed as Hoechst dye)	% Mapped to mtDNA (mtDNA [1]; Concentration of Hoechst 8 μM) [%]	% Mapped to mtDNA (mtDNA [1]; Concentration of Hoechst 80 μM) [%]	% Mapped to mtDNA (mtDNA [1]; [3]) [%]	% Mapped to gDNA (nuclear) (gDNA (nuclear); Concentration of Hoechst 8 μM) [%]	% Mapped to gDNA (nuclear) (gDNA (nuclear); Concentration of Hoechst 80 μM) [%]	% Mapped to gDNA (nuclear) (gDNA (nuclear); [3]) [%]	Effect on ATAC-seq profiles (nucleosome positioning) (nucleosome positioning)	Staining of mtDNA versus actively transcribed regions of nuclear DNA (mtDNA [2])
CN1CCN(c2ccc3[nH]c(-c4ccc5[nH]c(-c6ccc(O)cc6)nc5c4)nc3c2)CC1 [Hoechst, Hoechst 33258]	reduces mitochondrial DNA reads	decreasing mtDNA reads	32	11	0	68	89	100	does not alter the ATAC-seq profiles	
N=C(N)c1ccc(-c2cc3ccc(C(=N)N)cc3[nH]2)cc1 [DAPI, 4′, 6-diamidino-2-phenylindole]										staining of mtDNA took place but not of actively transcribed (ATAC) regions of nuclear DNA
